The record followed here is patent publication US20220298540A1, “METHOD AND REAGENTS FOR DETECTING LUCIFERASE ACTIVITY” (OBSCHESATVO S OGRANICHENNOY OTVETSTVENNOSTYU "PLANTA", priority 2019, published 2022).

The test system of series [1] is highly purified luciferase. The experiment in a line: In vitro bioluminescence reaction, conversion of luciferin into oxyluciferin with highly purified luciferase. It counts as biochemical, Odontosyllis undecimdonta. The conditions noted are these: 60 μL pure luciferin fraction, 40 μL tris-buffered saline, 20 μL highly purified luciferase; no luminescence in control tube. As to the method:
Each tube contained 60 μL of pure luciferin fraction, 40 μL of tris-buffered saline and 20 μL of highly purified luciferase (see section below) or tris-buffered saline in case of negative control. […] The reaction was monitored by using 5 μl aliquots of the reaction and control mixtures, followed by stopping the reaction in 0, 5, 15, 30, 60, 120, 180, and 300 min by adding 20 μl of methanol and centrifugation, after that, the reversed-phase HPLC was used to analyze the supernatants. A Shim-Pack XR-ODS column (3.0×75 mm, 2.2 μm) was used in combination with a Nexera X2 system (Shimadzu, Japan). Solvent A is a 0.1% formic acid solution, pH 4.9, solvent B is acetonitrile. Elution was carried out in a linear gradient with the solvent B concentration from 1 to 20% (15 min) at a flow rate of 0.7 ml/min. Purified luciferase samples were obtained as a result of sequential purification of an aqueous extract of lyophilized worms: ion-exchange chromatography in a HiTrap Fast Flow column with DEAE-Sepharose (GE Healthcare, Uppsala, Sweden), ultrafiltration in an Amicon® Ultra centrifugal filter (Merck Millipore, Germany) and gel filtration chromatography in a Superdex 200 column ([…]).

A short description of series [2]: Effect of light on luciferin. It counts as physicochemical. The conditions noted are these: confirmed experimentally. An excerpt:
Formation of bioluminescence depends on the amount and preservation of luciferase in biological samples.

Series [3] has as its system Odontosyllis undecimdonta worm luciferase. The experiment in a line: Detecting bioluminescence in cold extracts of Odontosyllis undecimdonta worms. It counts as biochemical. Particulars: 1 μg in 100 μl tris-buffered saline pH 7.5, aliquots added to cold worm extracts; FIG. 12, FIG. 13. As to the method:
Adding 5 ml of phosphate buffer (5 mM sodium phosphate buffer, pH 7.4) to 200 mg of lyophilized worms. Pipetting the mixture into liquid nitrogen to create small drops of frozen material, then grounding them in a mortar. Adding the frozen powder to 15 ml of phosphate buffer (5 mM sodium phosphate buffer, pH 7.4) and incubating for 40 minutes in an ice bath while stirring regularly. Centrifuging the mixture at 40,000 g (4° C.) for 40 min. Collecting the supernatant comprising luciferase, luciferin and oxyluciferin, freezing the cell-free extract and storing at −70° C. […] Extracts of Odontosyllis undecimdonta worms were used as biological samples. […]

For series [4], the system named is recombinant luciferase Odontosyllis undecimdonta. The experiment in a line: Detecting luciferase in lysates of mammalian cells comprising recombinant luciferase. The conditions noted are these: 1 μg in 100 μl tris-buffered saline pH 7.5, aliquots added to cell lysates with recombinant luciferase; FIG. 11.
Protocol: Recombinant luciferase was obtained from luciferase complementary DNA synthesized as a linear double-stranded DNA fragment (Twist Biosciences, USA). Cloning was performed using the Golden Gate method. Eukaryotic cell expression plasmids were assembled into the plasmid of the MoClo pICH47742 kit as a backbone, and the following parts were cloned in level 0 vectors: cytomegalovirus promoter, luciferase candidate gene, termination codon comprising a part of DNA, and SV40 polyadenylation terminator. HEK293NT cells were transfected with FuGene 6 reagent plasmid (Promega, Fitchburg, Wis., USA) according to the manufacturer's protocol. The transfected cells were grown under standard conditions.
Lysates of mammalian cells comprising recombinant luciferase Odontosyllis undecimdonta were used as biological samples. Cell lysates were obtained as described above in the section “Obtaining native luciferase and recombinant luciferase samples”.
Series [5] in a line: Storage stability of freeze-dried substrate. Type of series: physicochemical. Particulars: −20° C. An excerpt: This new luciferin isolated by the present inventors has a unique structure that distinguishes it from all previously described natural luciferins. Thus, the basis of the Odontosyllis worm luciferin molecule is a condensed heterocycle—thieno[3,2-f]thiochromene consisting of two six-membered and one five-membered rings. Such complex condensed tricyclic structures have not previously been found as bioluminescent reaction substrates. It is also worth noting that thiopyran is named in the composition of natural bioluminescent substrates for the first time. Odontosyllis worm luciferin is a strongly polar molecule and represents a strong acid, since this molecule comprises three carboxyl substituents and also carries a sulfonic acid residue. Freeze-dried substrate is stored at −20° C. without decrease in activity for at least 30 days, more often at least 60 days, normally at least a year.

For the compound `O=C(O)C1=Cc2c(c(OS(=O)(=O)O)c(O)c3scc(C(=O)O)c23)SC1C(=O)O` (stereo not drawn) [luciferin, 4-hydroxy-5-(sulfooxy)-7H-thieno[3,2-f]thiochromen-1,7,8-tricarboxylic acid], the “radiation (luminescence) in the course of the reaction” value in series [1] is listed as “Radiation was observed”. In series [2], the “effect of light emission, especially the UV part of the spectrum” value is “degradation and loss of functionality”. Further, the “luminescence of biological samples” value in series [3] and in series [4] was “detected” each time. Besides, in series [5], the “storage without decrease in activity” value was “at least 30 days”.

Consider `O=C(O)C(=O)C1=C(C(=O)O)Cc2c(c(OS(=O)(=O)O)c(O)c3scc(C(=O)O)c23)S1` [pre-luciferin, 7-(carboxycarbonyl)-4-hydroxy-5-(sulfooxy)-9H-thieno[3,2-f]thiochromene-1,8-dicarboxylic acid], for which, in series [3], the “luminescence of biological samples” value is reported as “detected”.
